Source: US9650339B2, “Inhibitors of histone demethylases” (Gilead Sciences, Inc., priority 2013, dated 2017)

Legend:
Type in all cases: biochemical
KDM5B (PLU-1) = target: T1, KDM5B (PLU-1) (Homo sapiens, UniProt Q9UGL1); assay: Histone lysine demethylase AlphaLISA assay, KDM5B; settings: read-out: KDM5B HDME Inhibition IC50
T1 sequence (Q9UGL1 1-809): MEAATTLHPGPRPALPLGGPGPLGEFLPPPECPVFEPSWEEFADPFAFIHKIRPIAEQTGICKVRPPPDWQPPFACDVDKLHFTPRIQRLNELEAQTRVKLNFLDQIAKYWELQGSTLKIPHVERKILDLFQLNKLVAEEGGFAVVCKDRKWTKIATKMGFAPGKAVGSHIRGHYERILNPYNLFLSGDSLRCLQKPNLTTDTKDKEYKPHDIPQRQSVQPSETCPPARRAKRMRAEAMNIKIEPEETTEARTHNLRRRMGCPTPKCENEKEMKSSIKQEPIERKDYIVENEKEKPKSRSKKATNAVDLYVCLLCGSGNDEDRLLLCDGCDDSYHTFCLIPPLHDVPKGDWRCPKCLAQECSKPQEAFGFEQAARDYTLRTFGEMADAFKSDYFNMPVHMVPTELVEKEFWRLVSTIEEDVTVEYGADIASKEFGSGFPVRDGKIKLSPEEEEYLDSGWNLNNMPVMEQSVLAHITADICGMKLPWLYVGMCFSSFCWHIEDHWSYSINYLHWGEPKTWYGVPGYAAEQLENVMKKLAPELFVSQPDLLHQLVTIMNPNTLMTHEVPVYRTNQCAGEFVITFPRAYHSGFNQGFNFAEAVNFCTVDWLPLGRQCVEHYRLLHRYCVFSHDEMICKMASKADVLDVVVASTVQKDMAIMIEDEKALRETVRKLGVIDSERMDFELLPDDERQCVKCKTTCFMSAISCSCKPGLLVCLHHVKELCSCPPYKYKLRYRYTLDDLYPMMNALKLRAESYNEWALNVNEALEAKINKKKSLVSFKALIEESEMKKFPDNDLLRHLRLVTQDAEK
Procedure, shortened: (§1)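 AlphaLISA demethylation readout: enzyme preincubated 10 min, then 10 min with compounds in 3% DMSO buffer, before biotinylated methyl-lysine histone peptide substrate with 25 μM L-Asc and 10 μM α-KG, room temperature. Acceptor beads then streptavidin donor beads added, dark incubation, plates read.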

KDM5C (JARID1C) = target: T2, KDM5C (JARID1C) (Homo sapiens, UniProt P41229); assay: Histone lysine demethylase AlphaLISA assay, KDM5C; settings: read-out: KDM5C HDME Inhibition IC50
T2 construct: 2-1560; purchased BPS; host or cells: Bac (baculovirus system)
Procedure, shortened: as §1

KDM6B (JMJD3) = target: T3, KDM6B (JMJD3) (Homo sapiens, UniProt O15054); assay: Histone lysine demethylase AlphaLISA assay, KDM6B; settings: read-out: KDM6B HDME Inhibition IC50
T3 construct: 1043-end; purchased BPS; host or cells: Bac (baculovirus system)
Procedure, shortened: as §1

KDM4A (JMJD2A) = target: T4, KDM4A (JMJD2A) (Homo sapiens, UniProt O75164); assay: Histone lysine demethylase AlphaLISA assay, KDM4A; settings: read-out: KDM4A HDME Inhibition IC50
T4 construct: 1-350; purchased BPS Bioscience, US; host or cells: E. coli
T4 sequence (O75164 1-350): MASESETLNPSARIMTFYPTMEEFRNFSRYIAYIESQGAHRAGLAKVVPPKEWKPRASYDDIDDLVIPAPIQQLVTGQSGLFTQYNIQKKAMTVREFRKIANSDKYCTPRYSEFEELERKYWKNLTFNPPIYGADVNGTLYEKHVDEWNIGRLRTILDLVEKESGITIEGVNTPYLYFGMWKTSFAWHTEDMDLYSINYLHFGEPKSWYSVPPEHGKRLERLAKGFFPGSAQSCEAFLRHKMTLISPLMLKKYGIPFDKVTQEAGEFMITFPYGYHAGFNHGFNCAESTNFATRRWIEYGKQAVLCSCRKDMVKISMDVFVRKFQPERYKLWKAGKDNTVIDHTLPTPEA
Procedure, shortened: as §1

KDM6A (UTX) = KDM6A (UTX) (Homo sapiens, UniProt O15550); assay: Histone lysine demethylase AlphaLISA assay, KDM6A; settings: read-out: KDM6A HDME Inhibition IC50
Procedure, shortened: as §1

KDM2B (FBXL10) = target: T5, KDM2B (FBXL10) (Homo sapiens, UniProt Q8NHM5); assay: Histone lysine demethylase AlphaLISA assay, KDM2B; settings: read-out: KDM2B HDME Inhibition IC50
T5 sequence (Q8NHM5 1-650): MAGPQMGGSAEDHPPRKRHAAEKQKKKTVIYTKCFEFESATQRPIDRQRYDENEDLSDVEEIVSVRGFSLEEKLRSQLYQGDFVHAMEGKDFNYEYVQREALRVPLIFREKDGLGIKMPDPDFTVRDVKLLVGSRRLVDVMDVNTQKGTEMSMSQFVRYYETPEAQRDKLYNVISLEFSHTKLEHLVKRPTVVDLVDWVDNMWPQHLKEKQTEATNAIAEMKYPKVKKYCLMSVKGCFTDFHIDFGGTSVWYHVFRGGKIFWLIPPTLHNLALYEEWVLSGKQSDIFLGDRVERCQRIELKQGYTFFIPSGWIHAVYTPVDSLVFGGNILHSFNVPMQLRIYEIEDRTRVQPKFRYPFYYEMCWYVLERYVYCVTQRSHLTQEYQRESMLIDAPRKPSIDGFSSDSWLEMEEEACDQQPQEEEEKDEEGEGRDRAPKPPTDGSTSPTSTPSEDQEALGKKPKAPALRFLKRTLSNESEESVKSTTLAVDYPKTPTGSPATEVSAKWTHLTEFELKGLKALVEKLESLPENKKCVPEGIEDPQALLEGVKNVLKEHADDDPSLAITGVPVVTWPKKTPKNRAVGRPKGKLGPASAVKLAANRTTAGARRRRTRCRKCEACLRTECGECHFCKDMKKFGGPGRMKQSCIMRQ
Procedure, shortened: as §1

Sequence of KDM6A (UTX) (O15550 919-1401): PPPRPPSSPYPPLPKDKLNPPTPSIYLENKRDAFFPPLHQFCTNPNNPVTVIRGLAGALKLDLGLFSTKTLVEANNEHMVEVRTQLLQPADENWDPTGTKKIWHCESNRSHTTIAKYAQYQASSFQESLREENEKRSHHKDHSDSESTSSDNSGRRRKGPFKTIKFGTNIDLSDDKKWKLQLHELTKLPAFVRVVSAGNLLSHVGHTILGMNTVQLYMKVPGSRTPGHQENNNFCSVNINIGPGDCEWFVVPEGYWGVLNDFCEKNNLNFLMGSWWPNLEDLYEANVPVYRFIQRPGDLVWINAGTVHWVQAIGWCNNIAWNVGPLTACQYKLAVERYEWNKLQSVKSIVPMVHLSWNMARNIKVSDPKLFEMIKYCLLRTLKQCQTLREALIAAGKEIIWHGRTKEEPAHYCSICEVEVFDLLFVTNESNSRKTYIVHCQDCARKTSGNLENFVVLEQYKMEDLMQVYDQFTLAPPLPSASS
T2 sequence (P41229 2-1560): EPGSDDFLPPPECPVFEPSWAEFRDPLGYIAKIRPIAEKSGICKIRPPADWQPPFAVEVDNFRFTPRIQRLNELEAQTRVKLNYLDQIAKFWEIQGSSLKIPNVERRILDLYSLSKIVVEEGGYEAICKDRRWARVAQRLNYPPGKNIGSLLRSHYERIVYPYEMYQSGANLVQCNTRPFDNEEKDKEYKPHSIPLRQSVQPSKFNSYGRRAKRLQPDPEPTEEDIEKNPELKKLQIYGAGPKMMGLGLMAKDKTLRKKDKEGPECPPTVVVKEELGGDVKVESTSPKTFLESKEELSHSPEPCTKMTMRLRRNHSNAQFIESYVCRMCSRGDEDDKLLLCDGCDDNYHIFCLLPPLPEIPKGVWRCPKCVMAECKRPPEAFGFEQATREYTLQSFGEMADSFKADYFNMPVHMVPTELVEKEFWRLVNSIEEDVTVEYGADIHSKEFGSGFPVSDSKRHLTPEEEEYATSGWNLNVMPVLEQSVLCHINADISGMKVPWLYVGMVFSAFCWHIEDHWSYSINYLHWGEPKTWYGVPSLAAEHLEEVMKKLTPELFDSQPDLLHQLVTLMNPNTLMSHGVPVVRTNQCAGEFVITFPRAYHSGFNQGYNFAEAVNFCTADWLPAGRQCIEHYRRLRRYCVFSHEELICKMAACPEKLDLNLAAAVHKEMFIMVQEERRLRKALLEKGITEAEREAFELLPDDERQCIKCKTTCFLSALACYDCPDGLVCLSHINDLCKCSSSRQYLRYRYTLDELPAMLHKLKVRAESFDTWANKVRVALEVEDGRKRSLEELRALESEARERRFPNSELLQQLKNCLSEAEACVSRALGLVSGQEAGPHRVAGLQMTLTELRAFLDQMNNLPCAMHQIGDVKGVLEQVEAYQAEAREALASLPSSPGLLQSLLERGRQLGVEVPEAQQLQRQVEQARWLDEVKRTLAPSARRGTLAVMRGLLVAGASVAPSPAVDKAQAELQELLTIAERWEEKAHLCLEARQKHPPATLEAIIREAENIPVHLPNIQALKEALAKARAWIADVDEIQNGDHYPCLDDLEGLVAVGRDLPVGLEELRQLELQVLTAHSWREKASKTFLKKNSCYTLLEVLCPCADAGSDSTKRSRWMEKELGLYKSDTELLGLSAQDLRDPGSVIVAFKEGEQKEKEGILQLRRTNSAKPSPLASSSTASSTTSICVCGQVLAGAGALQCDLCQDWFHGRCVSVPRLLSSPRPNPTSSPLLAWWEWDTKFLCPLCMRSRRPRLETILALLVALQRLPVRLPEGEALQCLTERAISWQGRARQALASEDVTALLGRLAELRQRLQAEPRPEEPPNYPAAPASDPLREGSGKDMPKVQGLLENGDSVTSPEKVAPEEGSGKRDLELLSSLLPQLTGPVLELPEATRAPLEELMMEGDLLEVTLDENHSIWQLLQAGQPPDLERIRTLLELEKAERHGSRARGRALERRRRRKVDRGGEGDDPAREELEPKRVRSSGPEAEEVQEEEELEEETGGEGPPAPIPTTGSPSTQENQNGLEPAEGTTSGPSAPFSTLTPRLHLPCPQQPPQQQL
T3 sequence (O15054 1043-1682 isoform O15054-1 limits assumed): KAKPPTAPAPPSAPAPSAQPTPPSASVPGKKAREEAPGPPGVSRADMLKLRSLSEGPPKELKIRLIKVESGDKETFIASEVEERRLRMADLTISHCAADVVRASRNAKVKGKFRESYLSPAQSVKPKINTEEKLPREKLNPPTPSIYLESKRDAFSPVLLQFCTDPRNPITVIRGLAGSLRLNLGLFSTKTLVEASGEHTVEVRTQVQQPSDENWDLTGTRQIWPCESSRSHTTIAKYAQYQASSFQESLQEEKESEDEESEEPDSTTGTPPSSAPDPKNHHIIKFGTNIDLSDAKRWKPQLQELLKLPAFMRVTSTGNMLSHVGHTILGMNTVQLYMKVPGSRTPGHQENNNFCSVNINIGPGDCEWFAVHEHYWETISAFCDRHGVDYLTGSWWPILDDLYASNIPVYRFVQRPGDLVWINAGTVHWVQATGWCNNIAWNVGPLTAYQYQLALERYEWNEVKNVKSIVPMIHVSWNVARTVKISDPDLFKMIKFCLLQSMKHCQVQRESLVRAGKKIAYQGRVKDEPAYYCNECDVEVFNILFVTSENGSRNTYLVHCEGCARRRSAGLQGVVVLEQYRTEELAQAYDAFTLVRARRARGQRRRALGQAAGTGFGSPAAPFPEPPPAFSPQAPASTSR

Row | Compound | IC50 (KDM5B (PLU-1)) | IC50 (KDM5C (JARID1C)) | IC50 (KDM6B (JMJD3)) | IC50 (KDM4A (JMJD2A)) | IC50 (KDM6A (UTX)) | IC50 (KDM2B (FBXL10))
1 | CN1CCN(C(=O)CNCc2cc(C=O)ccn2)CC1 [Compound 103, 2-({[2-(4-methylpiperazin-1-yl)-2-oxoethyl]-amino}methyl)-pyridine-4-carbaldehyde] | 250 to 2500 nM | < 250 nM | > 2500 nM | > 2500 nM | > 2500 nM | > 2500 nM
2 | CN(C)CCCCNCc1cc(C=O)ccn1 [Compound 108, 2-({[4-(dimethylamino)-butyl]amino}methyl)-pyridine-4-carbaldehyde] | 250 to 2500 nM | < 250 nM | > 2500 nM | > 2500 nM | > 2500 nM | > 2500 nM
3 | CN(C)CCNCc1cc(C=O)ccn1 [Compound 110, 2-({[2-(dimethylamino)-ethyl]amino}methyl)-pyridine-4-carbaldehyde] | 250 to 2500 nM | < 250 nM | > 2500 nM | 250 to 2500 nM | > 2500 nM | > 2500 nM
4 | CCN(CC)CCCCN(Cc1cc(C=O)ccn1)C(=O)C(F)(F)F [Compound 115, N-[4-(diethylamino)butyl]-2,2,2-trifluoro-N-[(4-formylpyridin-2-yl)methyl]acetamide] | > 2500 nM | < 250 nM | > 2500 nM | 250 to 2500 nM | > 2500 nM | > 2500 nM

Second part, the molecule after the results:

Row | IC50 (KDM5B (PLU-1)) | IC50 (KDM5C (JARID1C)) | IC50 (KDM6B (JMJD3)) | IC50 (KDM4A (JMJD2A)) | IC50 (KDM6A (UTX)) | IC50 (KDM2B (FBXL10)) | Compound
5 | < 250 nM | < 250 nM | > 2500 nM | > 2500 nM | > 2500 nM | > 2500 nM | O=Cc1ccnc(CNCC(=O)N2CCC[C@@H]2CN2CCCC2)c1 [Compound 102, 2-[({2-oxo-2-[(2R)-2-(pyrrolidin-1-ylmethyl)pyrrolidin-1-yl]ethyl}amino)-methyl]pyridine-4-carbaldehyde]
6 | < 250 nM | > 2500 nM | > 2500 nM | 250 to 2500 nM | > 2500 nM | > 2500 nM | O=Cc1ccnc(CNCC(=O)N2CCC(Cc3ccccc3)CC2)c1 [Compound 106, 2-({[2-(4-benzylpiperidin-1-yl)-2-oxoethyl]-amino}methyl)-pyridine-4-carbaldehyde]
7 | < 250 nM | < 250 nM | > 2500 nM | > 2500 nM | > 2500 nM | > 2500 nM | CCN(CC)CCCCNCc1cc(C=O)ccn1 [Compound 107, 2-({[4-(diethylamino)-butyl]amino}-methyl)pyridine-4-carbaldehyde]
